Where a name gives a salt, the structure may show the parent alone.
Experiments:
[1] = Determination of the fluorescence spectrum of fluorescent dyes; format: physicochemical; conditions: for λem (max/nm): ethanol and water (50:50, v/v), 1.0×10^−6 mol/L, excitation at maximum absorption wavelength
Description: The fluorescence spectrum was measured using the maximum absorption wavelength in the measured near-infrared spectrum as the excitation wavelength of the fluorescence spectrum. The compounds prepared in Example 1 and Examples 4-6 were accurately weighed to prepare a solution of ethanol and water (50:50, v/v) at a concentration of 1.0×10^−6 mol/L. The emission spectrum of the solution was measured, and the result was shown in FIG. 1. In FIG. 1, 1 represents the intermediate prepared in Example 1, and 2-4 represent the compounds prepared in Examples 4-6, respectively.

[2] = Determination of molar extinction coefficient by UV-visible absorption spectroscopy; format: physicochemical; conditions: A=εcl
Description: The molar extinction coefficient of the compound was determined by UV-visible absorption spectroscopy. The formula for calculating molar extinction coefficient is as shown in equation (1): A=εcl Equation (1), wherein A represents ultraviolet absorption value, ε represents molar extinction coefficient, c represents concentration of the compound, and l represents thickness of the quartz cell for detection.

[3] = Determination of fluorescence quantum yield of fluorescent dyes; format: physicochemical; conditions: 20° C., absolute ethanol, quinine sulfate as reference
Description: The fluorescence quantum yield of the fluorescent dyes was determined at 20° C., and quinine sulfate (Solvent: 0.1M H2SO4, Quantum yield: 0.56) was used as a reference compound, then the fluorescence quantum yield was calculated by measuring fluorescence integral intensities obtained from the dilute solutions of the fluorescent dyes and the reference compound under the same excitation conditions and the ultraviolet absorption value at this excitation wavelength. The product was dissolved in absolute ethanol.
The formula for calculating fluorescence quantum yield is as shown in equation (2):
[formula] wherein Φ represents quantum yield of the compound to be measured, the subscript R represents reference compound, I represents fluorescence integral intensity, A represents ultraviolet absorption value, and η represents solvent refractive index. Generally, the ultraviolet absorption values A and AR are less than 0.1.

[4] = Determination of the absorption spectrum of fluorescent dyes; format: physicochemical; conditions: 1.0×10^−5 mol/L in 50% by volume of ethanol
From the text: The compounds prepared in Example 1 and Examples 4-6 were accurately weighed to prepare a solution having a concentration of 1.0×10^−5 mol/L using 50% by volume of ethanol. In FIG. 2, 1 represents the intermediate prepared in Example 1, and 2-4 represent the compound prepared in Examples 4-6, respectively.

[5] = reference compound, solvent 0.1M H2SO4; cited from earlier work

Structure (SMILES)	Stokes shift (nm) [1]	λem (max/nm) [1]	ε × 10^4 (M^−1 cm^−1) [2]	Φ (%) [3]	λabs (max/nm) [4]	Quantum yield [5]
CC1(C)C(/C=C/C2=C(NCC(=O)O)C(=C/C=C3/N(/C=C/Br)c4ccccc4C3(C)C)/CCC2)=[N+](/C=C/Br)c2ccccc21 [Example 4]	38 nm	815 nm	8.5 × 10^4 M^−1 cm^−1	84.99%	785 nm	
CC1(C)C(/C=C/C2=C(NCO)C(=C/C=C3/N(/C=C/Br)c4ccccc4C3(C)C)/CCC2)=[N+](/C=C/Br)c2ccccc21 [Example 5]	40 nm	820 nm	8.6 × 10^4 M^−1 cm^−1	86.00%	787 nm	
CC1(C)C(/C=C/C2=C(NCc3cccc(C(=O)O)c3)C(=C/C=C3/N(/C=C/Br)c4ccccc4C3(C)C)/CCC2)=[N+](/C=C/Br)c2ccccc21 [Example 6]	34 nm	829 nm	9.0 × 10^4 M^−1 cm^−1	89.86%	790 nm	
C=C[C@H]1C[N@@]2CC[C@H]1C[C@H]2[C@H](O)c1ccnc2ccc(OC)cc12 [quinine sulfate]						0.56
